{"source": "paper PMC4997860", "about": "“The Heterodimeric ABC Transporter EfrCD Mediates Multidrug Efflux in Enterococcus faecalis” (Antimicrobial Agents and Chemotherapy, 2016)", "experiment_in_all_cases": "ATPase modulation in proteoliposomes, malachite green", "type_in_all_cases": "biochemical", "key": {"[1]": {"molecular_target": "T1, EfrAB (Enterococcus faecalis, UniProt Q82ZX7+Q82ZX8)", "T1 construct": "gene EF_2920; full-length heterodimer, N-terminal deca-His tag on first chain cleaved with 3C protease, expressed in L. lactis NZ9000 dlmrA dlmrCD; proteoliposomes", "T1 sequence (Q82ZX8 entry or part of it)": "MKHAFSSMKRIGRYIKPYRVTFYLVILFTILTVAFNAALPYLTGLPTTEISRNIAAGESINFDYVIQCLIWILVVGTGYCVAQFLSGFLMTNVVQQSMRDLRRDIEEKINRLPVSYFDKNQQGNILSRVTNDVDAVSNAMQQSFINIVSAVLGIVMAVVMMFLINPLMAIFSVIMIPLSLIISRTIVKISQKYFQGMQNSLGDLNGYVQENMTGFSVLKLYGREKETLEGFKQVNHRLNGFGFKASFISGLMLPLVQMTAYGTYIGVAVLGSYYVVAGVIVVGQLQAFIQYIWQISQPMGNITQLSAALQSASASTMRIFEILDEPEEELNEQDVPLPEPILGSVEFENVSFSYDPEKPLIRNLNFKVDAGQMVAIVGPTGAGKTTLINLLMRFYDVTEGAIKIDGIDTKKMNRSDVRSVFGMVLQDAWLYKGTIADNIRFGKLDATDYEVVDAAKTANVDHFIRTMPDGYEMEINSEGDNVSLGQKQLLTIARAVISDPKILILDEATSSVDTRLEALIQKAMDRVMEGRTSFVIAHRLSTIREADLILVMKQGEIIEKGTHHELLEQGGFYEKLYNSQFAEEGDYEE", "T1 sequence (Q82ZX7 entry or part of it)": "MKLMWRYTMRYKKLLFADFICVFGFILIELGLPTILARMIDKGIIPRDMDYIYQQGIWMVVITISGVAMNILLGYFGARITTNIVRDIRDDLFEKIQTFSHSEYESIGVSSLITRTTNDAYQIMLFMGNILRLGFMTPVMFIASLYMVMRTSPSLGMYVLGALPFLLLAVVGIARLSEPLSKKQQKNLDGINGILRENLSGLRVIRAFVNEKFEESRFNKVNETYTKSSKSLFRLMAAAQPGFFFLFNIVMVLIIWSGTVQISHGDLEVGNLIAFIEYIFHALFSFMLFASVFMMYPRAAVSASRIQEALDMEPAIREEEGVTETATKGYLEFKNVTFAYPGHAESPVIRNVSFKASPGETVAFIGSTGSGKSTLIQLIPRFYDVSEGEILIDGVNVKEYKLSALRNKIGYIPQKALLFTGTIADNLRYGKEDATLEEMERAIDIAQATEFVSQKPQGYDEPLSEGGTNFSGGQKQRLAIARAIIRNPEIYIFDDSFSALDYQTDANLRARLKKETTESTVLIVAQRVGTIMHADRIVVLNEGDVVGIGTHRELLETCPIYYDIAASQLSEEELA", "settings": "20 uM Hoechst 33342; 1 mM ATP, 10 mM MgSO4, pH 7.0, 30°C; bell-shaped curve"}, "[2]": {"molecular_target": "T2, EfrEF (Enterococcus faecalis, UniProt Q832J9+Q832K0)", "T2 construct": "gene EF_2226; full-length heterodimer, N-terminal deca-His tag on first chain cleaved with 3C protease, expressed in L. lactis NZ9000 dlmrA dlmrCD; proteoliposomes", "T2 sequence (Q832K0 entry or part of it)": "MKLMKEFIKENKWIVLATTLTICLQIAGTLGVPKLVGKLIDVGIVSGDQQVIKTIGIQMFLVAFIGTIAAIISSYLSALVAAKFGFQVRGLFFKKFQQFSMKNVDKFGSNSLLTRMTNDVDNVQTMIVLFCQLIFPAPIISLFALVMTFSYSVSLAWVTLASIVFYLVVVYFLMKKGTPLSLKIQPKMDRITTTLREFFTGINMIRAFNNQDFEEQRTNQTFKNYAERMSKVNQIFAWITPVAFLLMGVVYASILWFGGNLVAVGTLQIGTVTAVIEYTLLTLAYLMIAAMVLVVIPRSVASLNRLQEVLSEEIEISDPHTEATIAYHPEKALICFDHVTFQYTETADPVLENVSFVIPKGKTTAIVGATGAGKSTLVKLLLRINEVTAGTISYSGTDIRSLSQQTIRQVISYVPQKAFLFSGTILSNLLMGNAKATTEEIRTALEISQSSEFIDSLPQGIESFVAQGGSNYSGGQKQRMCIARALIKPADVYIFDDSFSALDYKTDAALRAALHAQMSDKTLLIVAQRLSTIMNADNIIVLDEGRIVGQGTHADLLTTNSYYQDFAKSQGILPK", "T2 sequence (Q832J9 entry or part of it)": "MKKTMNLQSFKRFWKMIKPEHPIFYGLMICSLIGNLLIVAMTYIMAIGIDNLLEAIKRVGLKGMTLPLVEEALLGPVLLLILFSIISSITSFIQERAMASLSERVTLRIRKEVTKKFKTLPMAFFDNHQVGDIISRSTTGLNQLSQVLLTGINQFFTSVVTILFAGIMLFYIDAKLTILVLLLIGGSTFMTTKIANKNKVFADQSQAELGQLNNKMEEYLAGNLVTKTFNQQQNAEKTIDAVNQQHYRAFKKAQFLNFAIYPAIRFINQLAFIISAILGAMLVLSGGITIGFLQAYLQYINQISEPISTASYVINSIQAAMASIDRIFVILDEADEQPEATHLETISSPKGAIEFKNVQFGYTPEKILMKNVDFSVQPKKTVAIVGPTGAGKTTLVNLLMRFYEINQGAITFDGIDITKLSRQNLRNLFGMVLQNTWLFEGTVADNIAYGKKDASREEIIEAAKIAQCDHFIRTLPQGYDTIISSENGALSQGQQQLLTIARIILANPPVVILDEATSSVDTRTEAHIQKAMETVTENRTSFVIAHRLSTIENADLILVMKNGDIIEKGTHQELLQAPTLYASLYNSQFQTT", "settings": "2.5 uM Hoechst 33342; 1 mM ATP, 10 mM MgSO4, pH 7.0, 30°C; bell-shaped curve"}, "[3]": {"molecular_target": "T3, EfrCD (Enterococcus faecalis, UniProt Q837P4+Q837P5)", "T3 construct": "gene EF_0789; full-length heterodimer, N-terminal deca-His tag on EfrC cleaved with 3C protease (tag present in cells), expressed in L. lactis NZ9000 dlmrA dlmrCD; proteoliposomes", "T3 sequence (Q837P5 entry or part of it)": "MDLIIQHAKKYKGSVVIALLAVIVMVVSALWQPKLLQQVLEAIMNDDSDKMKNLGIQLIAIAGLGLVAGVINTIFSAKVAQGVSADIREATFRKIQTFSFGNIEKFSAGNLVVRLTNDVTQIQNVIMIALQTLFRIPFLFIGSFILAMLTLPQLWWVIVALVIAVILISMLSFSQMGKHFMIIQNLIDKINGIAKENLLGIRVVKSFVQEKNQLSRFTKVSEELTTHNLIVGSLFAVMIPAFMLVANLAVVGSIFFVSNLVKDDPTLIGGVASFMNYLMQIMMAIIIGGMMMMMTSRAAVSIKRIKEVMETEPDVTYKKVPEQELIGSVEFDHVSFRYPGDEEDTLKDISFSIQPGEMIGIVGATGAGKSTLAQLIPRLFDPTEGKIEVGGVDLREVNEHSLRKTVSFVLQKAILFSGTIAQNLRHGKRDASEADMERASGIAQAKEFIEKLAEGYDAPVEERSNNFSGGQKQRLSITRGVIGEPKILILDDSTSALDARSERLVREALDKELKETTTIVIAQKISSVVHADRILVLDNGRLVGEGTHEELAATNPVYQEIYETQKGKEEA", "T3 sequence (Q837P4 entry or part of it)": "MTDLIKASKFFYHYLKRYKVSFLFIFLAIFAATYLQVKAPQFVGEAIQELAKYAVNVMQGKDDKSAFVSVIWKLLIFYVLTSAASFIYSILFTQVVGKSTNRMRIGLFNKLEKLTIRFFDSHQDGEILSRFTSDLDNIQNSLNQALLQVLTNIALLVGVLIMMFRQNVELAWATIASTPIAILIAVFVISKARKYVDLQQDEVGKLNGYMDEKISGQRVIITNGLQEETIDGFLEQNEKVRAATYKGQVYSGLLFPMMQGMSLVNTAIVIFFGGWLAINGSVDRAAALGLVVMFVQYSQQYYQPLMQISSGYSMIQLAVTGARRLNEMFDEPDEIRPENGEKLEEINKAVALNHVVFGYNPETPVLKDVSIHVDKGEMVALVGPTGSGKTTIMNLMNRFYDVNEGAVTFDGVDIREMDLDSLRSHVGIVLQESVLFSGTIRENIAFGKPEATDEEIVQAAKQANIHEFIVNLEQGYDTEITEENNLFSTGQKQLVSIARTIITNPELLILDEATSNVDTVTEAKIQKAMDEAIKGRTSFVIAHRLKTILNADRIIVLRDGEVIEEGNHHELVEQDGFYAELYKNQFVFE", "settings": "0.1-200 uM drug; 1 mM ATP, 10 mM MgSO4, pH 7.0, 30°C; bell-shaped curve"}, "[4]": {"molecular_target": "T2, EfrEF", "settings": "0.1-200 uM drug; 1 mM ATP, 10 mM MgSO4, pH 7.0, 30°C; bell-shaped curve"}}}
{"molecule": "CCOc1ccc(-c2nc3ccc(-c4nc5ccc(N6CCN(C)CC6)cc5[nH]4)cc3[nH]2)cc1", "note": "[Hoechst 33342]", "values": [{"measurement": "maximal ATPase stimulation (basal = 100%)", "setting": "[1]", "value": 165, "unit": "%"}, {"measurement": "maximal ATPase stimulation (basal = 100%)", "setting": "[2]", "value": 130, "unit": "%"}]}
{"molecule": "COc1cccc2c1C(=O)c1c(O)c3c(c(O)c1C2=O)C[C@@](O)(C(C)=O)C[C@@H]3O[C@H]1C[C@H](N)[C@H](O)[C@H](C)O1", "note": "[daunorubicin]", "values": [{"measurement": "drug-modulated ATPase activity", "setting": "[3]", "value": "a strong response in the form of a bell-shaped curve was seen for EfrCD"}]}
{"molecule": "CC[n+]1c(-c2ccccc2)c2cc(N)ccc2c2ccc(N)cc21", "note": "[ethidium]", "values": [{"measurement": "drug-modulated ATPase activity", "setting": "[4]", "value": "For ethidium, a bell-shaped curve with a large magnitude was observed for EfrEF"}]}
